IC50 data for 22 molecules are collected here from ChEMBL document CHEMBL1134223, “Design of non-peptide CCK2 and NK1 peptidomimetics using 1-(2-nitrophenyl)thiosemicarbazide as a novel common scaffold” (Bioorg Med Chem Lett, 2001).

SMILES strings stand for the structures. pIC50: −log10 of the molar value. A value given as a limit tells only on which side of the number the result lay.

In assay [1] the target is Substance-P receptor (Rattus norvegicus, UniProt P14600). The assay can be described thus: In vitro binding affinity against Tachykinin receptor 1 in rat whole forebrain membranes using [3H][Sar9Met(O2)]-SP binding assay. Format: cell membranes, Membrane.
Substance-P receptor (Rattus norvegicus, UniProt P14600), sequence (P14600 whole entry): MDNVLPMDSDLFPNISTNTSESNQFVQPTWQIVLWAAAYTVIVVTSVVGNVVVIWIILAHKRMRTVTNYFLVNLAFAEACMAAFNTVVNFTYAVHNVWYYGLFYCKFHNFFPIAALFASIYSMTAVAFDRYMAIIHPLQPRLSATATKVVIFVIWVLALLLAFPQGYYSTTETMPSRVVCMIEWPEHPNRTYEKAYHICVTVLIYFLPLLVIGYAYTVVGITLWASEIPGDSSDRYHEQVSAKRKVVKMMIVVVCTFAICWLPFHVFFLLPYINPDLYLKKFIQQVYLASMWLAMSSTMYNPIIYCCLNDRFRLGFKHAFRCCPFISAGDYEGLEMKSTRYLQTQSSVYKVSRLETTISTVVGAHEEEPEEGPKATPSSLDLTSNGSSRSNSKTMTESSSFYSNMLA
In another assay the target is T1, B2 bradykinin receptor (Rattus norvegicus, UniProt P25023).
T1 sequence (P25023 whole entry): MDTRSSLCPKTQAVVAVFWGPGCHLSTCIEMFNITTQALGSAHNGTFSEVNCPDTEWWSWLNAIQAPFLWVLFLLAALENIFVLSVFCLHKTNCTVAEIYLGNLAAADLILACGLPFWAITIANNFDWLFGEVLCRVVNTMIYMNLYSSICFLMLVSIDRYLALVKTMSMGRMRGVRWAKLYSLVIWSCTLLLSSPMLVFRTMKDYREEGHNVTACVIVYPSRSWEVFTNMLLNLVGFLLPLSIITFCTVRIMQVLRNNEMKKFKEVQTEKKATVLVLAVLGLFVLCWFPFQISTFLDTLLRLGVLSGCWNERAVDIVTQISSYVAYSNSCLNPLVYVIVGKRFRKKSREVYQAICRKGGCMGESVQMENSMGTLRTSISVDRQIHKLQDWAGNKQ
The assay can be described thus: In vitro binding affinity against Bradykinin receptor B2 in rat NG 108-15 neuroblastoma-glioma hybrid cell membranes using [3H]BK binding assay.

Assay [2] addresses T2, Gastrin/cholecystokinin type B receptor (Mus musculus, UniProt P56481).
T2 sequence (P56481 whole entry): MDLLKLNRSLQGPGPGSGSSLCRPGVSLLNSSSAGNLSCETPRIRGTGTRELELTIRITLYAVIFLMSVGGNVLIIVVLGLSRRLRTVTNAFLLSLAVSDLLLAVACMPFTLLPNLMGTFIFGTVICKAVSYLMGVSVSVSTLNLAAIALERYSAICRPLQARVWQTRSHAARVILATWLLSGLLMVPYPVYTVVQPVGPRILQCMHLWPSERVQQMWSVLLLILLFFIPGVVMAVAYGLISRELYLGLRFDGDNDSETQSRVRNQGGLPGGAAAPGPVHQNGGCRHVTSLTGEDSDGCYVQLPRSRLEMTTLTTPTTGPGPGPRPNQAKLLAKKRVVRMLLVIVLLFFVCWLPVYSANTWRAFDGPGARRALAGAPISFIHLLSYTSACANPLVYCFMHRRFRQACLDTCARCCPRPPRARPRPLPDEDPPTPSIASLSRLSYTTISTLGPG
Nature of the assay: In vitro binding affinity against Cholecystokinin type B receptor in mouse cerebral cortical membranes using [125I]Tyr(SO3H)27]-CCK-8 binding assay. Format: cell membranes.

For assay [3], the target named is Substance-P receptor (Cavia porcellus, UniProt P30547). The assay can be described thus: In vitro binding affinity against Tachykinin receptor 1 in guinea pig ileum using organ bath assay. Format: tissue-based.
Substance-P receptor (Cavia porcellus, UniProt P30547), sequence (P30547 whole entry): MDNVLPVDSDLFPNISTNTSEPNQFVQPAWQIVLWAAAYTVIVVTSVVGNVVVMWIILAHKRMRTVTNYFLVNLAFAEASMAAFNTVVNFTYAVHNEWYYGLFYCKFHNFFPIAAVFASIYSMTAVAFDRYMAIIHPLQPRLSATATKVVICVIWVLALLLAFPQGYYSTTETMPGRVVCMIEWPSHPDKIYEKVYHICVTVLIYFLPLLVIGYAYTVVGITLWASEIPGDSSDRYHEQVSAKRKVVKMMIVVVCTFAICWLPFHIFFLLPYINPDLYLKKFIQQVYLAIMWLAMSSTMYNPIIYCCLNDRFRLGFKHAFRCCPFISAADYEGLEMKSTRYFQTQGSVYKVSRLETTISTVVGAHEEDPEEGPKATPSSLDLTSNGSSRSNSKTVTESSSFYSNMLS

For the molecule `CSCCNS(=O)(=O)c1ccc(N/N=C(\S)N2CCC[C@@H]2C(=O)NCc2ccccc2)c([N+](=O)[O-])c1`, the pIC50 on Substance-P receptor [1] and on B2 bradykinin receptor was below 4.00 throughout.

As to `O=C(O)CCCNS(=O)(=O)c1ccc(N/N=C(/S)NCCc2c[nH]c3ccccc23)c([N+](=O)[O-])c1`, the pIC50 is below 4.00 at B2 bradykinin receptor and 4.96 in assay [2].

With `O=C(O)c1ccc(NC(=S)NNc2ccc(S(=O)(=O)NCCc3c[nH]c4ccccc34)cc2[N+](=O)[O-])cc1`, the figures for the pIC50 (at B2 bradykinin receptor; in assay [2]) were below 4.00 and 4.62, respectively.

Regarding `O=C(O)CNS(=O)(=O)c1ccc(NNC(=S)NCCc2c[nH]c3ccccc23)c([N+](=O)[O-])c1`, the pIC50 on B2 bradykinin receptor was below 4.00; in assay [2], 4.34.

On to `O=C(O)c1ccccc1NS(=O)(=O)c1ccc(N/N=C(/S)NCCc2c[nH]c3ccccc23)c([N+](=O)[O-])c1`, for which the pIC50 was below 4.00 at B2 bradykinin receptor and 5.35 in assay [2].

In the case of `O=C(O)c1ccc(NS(=O)(=O)c2ccc(N/N=C(/S)NCCc3c[nH]c4ccccc34)c([N+](=O)[O-])c2)cc1`, the results for the pIC50 (at B2 bradykinin receptor; in assay [2]) were below 4.00 and 5.00, respectively.

As to `O=C(O)c1cccc(NS(=O)(=O)c2ccc(NNC(=S)NCCc3c[nH]c4ccccc34)c([N+](=O)[O-])c2)c1`, the negative-log IC50 (pIC50) at B2 bradykinin receptor was below 4.00; in assay [2], 5.44.

As for `CSCCNS(=O)(=O)c1ccc(N/N=C(\S)N2CCC[C@H]2C(=O)NCc2ccccc2)c([N+](=O)[O-])c1`, the pIC50 on Substance-P receptor [1] and at B2 bradykinin receptor was below 4.00 each time.

Turning to `O=C(O)c1cccc(N(Cc2ccccc2)S(=O)(=O)c2ccc(NNC(=S)NCCc3c[nH]c4ccccc34)c([N+](=O)[O-])c2)c1`, the figures for the pIC50 (at B2 bradykinin receptor; in assay [2]) were below 4.00 and 5.40, respectively.

As to `O=C(O)CN(Cc1ccccc1)S(=O)(=O)c1ccc(N/N=C(/S)NC(c2ccccc2)c2ccccc2)c([N+](=O)[O-])c1`, the pIC50 at B2 bradykinin receptor is 6.39; in assay [2], 5.72.

`CSCCNS(=O)(=O)c1ccc(N/N=C(\S)N2CCC[C@H]2C(=O)NC(c2ccccc2)c2ccccc2)c([N+](=O)[O-])c1`: the pIC50 is below 4.00 at B2 bradykinin receptor and 6.01 on Substance-P receptor [3].

For the molecule `O=C(O)CN(CCc1ccccc1)S(=O)(=O)c1ccc(N/N=C(/S)NCCc2c[nH]c3ccccc23)c([N+](=O)[O-])c1`, the figures for the pIC50 (at B2 bradykinin receptor; in assay [2]) were below 4.00 and 5.22, respectively.

`O=C(O)CN(Cc1ccccc1)S(=O)(=O)c1ccc(NNC(=S)NCCc2c[nH]c3ccccc23)c([N+](=O)[O-])c1`: the pIC50 at B2 bradykinin receptor was below 4.00; in assay [2], 5.74.

Take `O=C(NC(c1ccccc1)c1ccccc1)[C@H]1CCCN1/C(S)=N/Nc1ccccc1[N+](=O)[O-]`: the figures for the pIC50 at Substance-P receptor [1], on B2 bradykinin receptor and at Substance-P receptor [3] were below 4.00, below 4.00 and 5.64, respectively.

Regarding `O=C(O)CCN(Cc1ccccc1)S(=O)(=O)c1ccc(NNC(=S)NCCc2c[nH]c3ccccc23)c([N+](=O)[O-])c1`, the results for the pIC50 (at B2 bradykinin receptor; in assay [2]) were below 4.00 and 6.29, respectively.

With `O=C(O)CCNS(=O)(=O)c1ccc(N/N=C(/S)NCCc2c[nH]c3ccccc23)c([N+](=O)[O-])c1`, the values for the negative-log IC50 (pIC50) (at B2 bradykinin receptor; in assay [2]) were below 4.00 and 4.62, respectively.

On to `CSCCNS(=O)(=O)c1ccc(N/N=C(\S)N2CCC[C@@H]2C(=O)NC(c2ccccc2)c2ccccc2)c([N+](=O)[O-])c1`, for which the pIC50 is below 4.00 at B2 bradykinin receptor and 5.10 on Substance-P receptor [3].

As to `O=C(O)CN(CCCc1ccccc1)S(=O)(=O)c1ccc(N/N=C(/S)NCCc2c[nH]c3ccccc23)c([N+](=O)[O-])c1`, the pIC50 on B2 bradykinin receptor was below 4.00; in assay [2] it was 5.22.

As to `O=C(NC(c1ccccc1)c1ccccc1)[C@@H]1CCCN1/C(S)=N/Nc1ccccc1[N+](=O)[O-]`, the values for the pIC50 on Substance-P receptor [1], at B2 bradykinin receptor and on Substance-P receptor [3] were below 4.00, below 4.00 and 5.78, respectively.

Take `O=C(O)CCCN(Cc1ccccc1)S(=O)(=O)c1ccc(N/N=C(/S)NCCc2c[nH]c3ccccc23)c([N+](=O)[O-])c1`: the pIC50 on B2 bradykinin receptor was below 4.00; in assay [2], 5.61.

Regarding `O=C(O)c1cccc(NC(=S)NNc2ccc(S(=O)(=O)NCCc3c[nH]c4ccccc34)cc2[N+](=O)[O-])c1`, the figures for the pIC50 (at B2 bradykinin receptor; in assay [2]) were below 4.00 and 4.51, respectively.

At Substance-P receptor [3], `COc1ccccc1CN[C@H]1CCCN[C@H]1c1ccccc1` [CP-99994] had a pIC50 of 8.54.
